Assays:
Test in all cases: biochemical
Set-up in all cases: DiscoverX KinomeScan competition binding assay across human kinases; per cent of control at 10 and 100 uM
[1] = biological target: T1, YES (Homo sapiens, UniProt P07947); conditions: competition binding, % of control
T1 construct: gene YES1
Outline: (§1)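 Binding is expressed as %control, normalised between positive and negative control signals. The compound (levosimendan) was tested at 10 μM and 100 μM in the DiscoverX KinomeScan competition binding format against human kinases.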

[2] = biological target: DAPK3 (Homo sapiens, UniProt O43293); conditions: competition binding, % of control; read-out: Percent Control (100 uM Levosimendan)
Outline: as §1

[3] = biological target: T2, ABL1(T315I)-nonphosphorylated (Homo sapiens, UniProt P00519, T315I); conditions: competition binding, % of control; read-out: Percent Control (100 uM Levosimendan)
T2 construct: nonphosphorylated
Outline: as §1

[4] = biological target: FER (Homo sapiens, UniProt P16591); conditions: competition binding, % of control; read-out: Percent Control (100 uM Levosimendan)
Outline: as §1

[5] = biological target: EGFR(L747-S752del, P753S) (Homo sapiens, UniProt P00533, DEL747-752/P753S); conditions: competition binding, % of control; read-out: Percent Control (100 uM Levosimendan)
Outline: as §1

[6] = biological target: BUB1 (Homo sapiens, UniProt O43683); conditions: competition binding, % of control
Chain of BUB1 (O43683 whole entry): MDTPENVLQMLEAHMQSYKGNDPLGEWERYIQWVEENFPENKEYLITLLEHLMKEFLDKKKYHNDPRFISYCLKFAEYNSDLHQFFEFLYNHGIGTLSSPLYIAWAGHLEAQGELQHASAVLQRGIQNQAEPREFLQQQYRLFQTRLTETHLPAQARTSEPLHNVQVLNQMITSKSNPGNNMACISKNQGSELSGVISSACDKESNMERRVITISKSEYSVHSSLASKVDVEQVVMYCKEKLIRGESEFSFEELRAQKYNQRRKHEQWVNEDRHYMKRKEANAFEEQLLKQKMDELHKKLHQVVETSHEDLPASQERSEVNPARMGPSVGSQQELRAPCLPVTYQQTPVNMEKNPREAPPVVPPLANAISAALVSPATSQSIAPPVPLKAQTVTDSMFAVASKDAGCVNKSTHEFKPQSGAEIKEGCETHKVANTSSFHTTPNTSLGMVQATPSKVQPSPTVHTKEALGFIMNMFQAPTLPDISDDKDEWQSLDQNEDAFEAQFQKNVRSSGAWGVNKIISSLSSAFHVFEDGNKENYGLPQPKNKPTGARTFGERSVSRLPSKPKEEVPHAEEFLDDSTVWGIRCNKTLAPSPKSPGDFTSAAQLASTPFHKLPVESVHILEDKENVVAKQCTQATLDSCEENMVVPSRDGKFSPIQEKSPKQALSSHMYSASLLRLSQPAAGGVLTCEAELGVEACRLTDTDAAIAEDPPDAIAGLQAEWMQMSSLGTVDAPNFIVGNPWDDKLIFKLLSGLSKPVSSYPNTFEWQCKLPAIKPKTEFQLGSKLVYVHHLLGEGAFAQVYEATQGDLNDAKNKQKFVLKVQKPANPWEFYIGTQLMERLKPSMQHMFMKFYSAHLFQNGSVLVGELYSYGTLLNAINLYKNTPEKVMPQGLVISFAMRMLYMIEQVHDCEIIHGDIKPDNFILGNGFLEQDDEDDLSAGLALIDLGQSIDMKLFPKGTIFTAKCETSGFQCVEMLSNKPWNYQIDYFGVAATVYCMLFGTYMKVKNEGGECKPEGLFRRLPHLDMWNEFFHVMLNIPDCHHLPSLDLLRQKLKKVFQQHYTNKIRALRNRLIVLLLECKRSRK
Outline: as §1

[7] = biological target: PHKG2 (Homo sapiens, UniProt P15735); conditions: competition binding, % of control
Chain of PHKG2 (P15735 whole entry): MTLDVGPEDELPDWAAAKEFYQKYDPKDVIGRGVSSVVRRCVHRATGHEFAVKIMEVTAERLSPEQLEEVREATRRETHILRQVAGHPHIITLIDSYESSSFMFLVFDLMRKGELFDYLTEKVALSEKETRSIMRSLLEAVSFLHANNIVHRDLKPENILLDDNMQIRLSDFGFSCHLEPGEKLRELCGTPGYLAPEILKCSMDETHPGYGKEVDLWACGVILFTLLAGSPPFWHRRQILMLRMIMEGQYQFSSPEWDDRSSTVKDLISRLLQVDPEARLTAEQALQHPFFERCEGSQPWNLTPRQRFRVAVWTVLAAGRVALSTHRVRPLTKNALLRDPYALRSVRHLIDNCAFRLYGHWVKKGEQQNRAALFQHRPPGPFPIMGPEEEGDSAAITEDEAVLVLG
Outline: as §1

[8] = biological target: DAPK2 (Homo sapiens, UniProt Q9UIK4); conditions: competition binding, % of control; read-out: Percent Control (100 uM Levosimendan)
Chain of DAPK2 (Q9UIK4 whole entry): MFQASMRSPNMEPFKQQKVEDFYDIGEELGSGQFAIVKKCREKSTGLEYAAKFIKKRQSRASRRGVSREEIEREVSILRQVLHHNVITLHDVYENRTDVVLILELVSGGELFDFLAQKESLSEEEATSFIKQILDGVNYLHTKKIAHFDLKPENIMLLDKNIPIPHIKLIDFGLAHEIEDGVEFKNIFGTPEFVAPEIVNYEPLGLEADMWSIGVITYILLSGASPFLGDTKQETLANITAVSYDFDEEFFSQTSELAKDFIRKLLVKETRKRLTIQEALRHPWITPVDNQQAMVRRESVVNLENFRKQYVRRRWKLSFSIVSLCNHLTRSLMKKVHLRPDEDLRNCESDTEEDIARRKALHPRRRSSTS
Outline: as §1

[9] = biological target: T3, DRAK1 (Homo sapiens, UniProt Q9UEE5); conditions: competition binding, % of control
T3 construct: gene STK17A
T3 sequence (Q9UEE5 whole entry): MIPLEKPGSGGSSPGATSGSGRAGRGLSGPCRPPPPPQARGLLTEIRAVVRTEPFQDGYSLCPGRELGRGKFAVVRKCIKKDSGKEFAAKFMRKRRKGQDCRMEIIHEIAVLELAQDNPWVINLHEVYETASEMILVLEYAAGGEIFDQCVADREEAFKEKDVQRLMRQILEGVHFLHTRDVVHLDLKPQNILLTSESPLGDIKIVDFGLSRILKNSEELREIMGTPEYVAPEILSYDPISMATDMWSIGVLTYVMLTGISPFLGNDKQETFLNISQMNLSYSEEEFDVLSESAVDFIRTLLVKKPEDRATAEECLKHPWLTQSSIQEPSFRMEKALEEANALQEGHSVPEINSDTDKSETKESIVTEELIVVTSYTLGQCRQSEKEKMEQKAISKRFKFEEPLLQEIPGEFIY
Outline: as §1

[10] = biological target: SRC (Homo sapiens, UniProt P12931); conditions: competition binding, % of control
Chain of SRC (P12931 whole entry): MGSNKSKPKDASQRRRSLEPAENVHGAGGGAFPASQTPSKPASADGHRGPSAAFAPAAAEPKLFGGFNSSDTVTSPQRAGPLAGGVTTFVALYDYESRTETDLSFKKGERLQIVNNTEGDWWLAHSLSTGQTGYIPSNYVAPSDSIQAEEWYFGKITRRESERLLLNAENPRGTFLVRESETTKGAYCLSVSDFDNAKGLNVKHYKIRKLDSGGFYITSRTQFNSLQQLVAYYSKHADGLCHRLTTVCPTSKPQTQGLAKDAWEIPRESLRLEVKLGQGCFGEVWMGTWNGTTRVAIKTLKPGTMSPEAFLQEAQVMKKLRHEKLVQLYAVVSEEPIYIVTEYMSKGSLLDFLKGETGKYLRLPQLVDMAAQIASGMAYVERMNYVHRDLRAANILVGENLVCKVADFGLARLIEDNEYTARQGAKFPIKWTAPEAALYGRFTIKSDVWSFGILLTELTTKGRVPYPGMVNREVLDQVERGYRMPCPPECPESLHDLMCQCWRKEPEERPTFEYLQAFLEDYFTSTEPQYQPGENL
Outline: as §1

[11] = biological target: PIK3C2G (Homo sapiens, UniProt O75747); conditions: competition binding, % of control; read-out: Percent Control (100 uM Levosimendan)
Outline: as §1

[12] = biological target: EPHA6 (Homo sapiens, UniProt Q9UF33); conditions: competition binding, % of control; read-out: Percent Control (100 uM Levosimendan)
Outline: as §1

[13] = biological target: PLK4 (Homo sapiens, UniProt O00444); conditions: competition binding, % of control
Chain of PLK4 (O00444 whole entry): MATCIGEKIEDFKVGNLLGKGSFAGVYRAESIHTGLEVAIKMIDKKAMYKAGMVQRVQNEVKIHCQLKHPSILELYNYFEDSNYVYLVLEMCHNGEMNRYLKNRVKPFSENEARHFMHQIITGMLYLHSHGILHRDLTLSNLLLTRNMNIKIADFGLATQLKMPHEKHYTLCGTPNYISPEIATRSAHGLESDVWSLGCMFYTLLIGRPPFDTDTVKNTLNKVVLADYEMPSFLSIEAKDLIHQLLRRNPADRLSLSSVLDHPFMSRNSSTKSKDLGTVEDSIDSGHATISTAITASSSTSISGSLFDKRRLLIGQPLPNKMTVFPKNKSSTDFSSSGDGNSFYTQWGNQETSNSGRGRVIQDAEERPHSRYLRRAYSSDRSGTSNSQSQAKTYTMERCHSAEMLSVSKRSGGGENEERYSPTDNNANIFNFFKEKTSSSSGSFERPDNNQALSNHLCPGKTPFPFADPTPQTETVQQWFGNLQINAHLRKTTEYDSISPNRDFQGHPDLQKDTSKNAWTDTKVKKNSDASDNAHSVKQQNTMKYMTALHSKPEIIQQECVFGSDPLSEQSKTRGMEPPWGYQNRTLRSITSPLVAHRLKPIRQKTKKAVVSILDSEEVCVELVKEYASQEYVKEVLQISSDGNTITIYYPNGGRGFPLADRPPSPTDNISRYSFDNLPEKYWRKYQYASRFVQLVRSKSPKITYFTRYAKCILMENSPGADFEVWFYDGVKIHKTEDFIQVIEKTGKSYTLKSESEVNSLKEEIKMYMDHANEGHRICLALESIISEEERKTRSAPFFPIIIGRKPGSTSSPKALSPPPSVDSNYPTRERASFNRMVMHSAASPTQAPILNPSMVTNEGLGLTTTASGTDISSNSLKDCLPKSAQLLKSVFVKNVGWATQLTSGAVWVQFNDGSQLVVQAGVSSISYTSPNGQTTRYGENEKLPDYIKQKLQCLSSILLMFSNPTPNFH
Outline: as §1

[14] = biological target: FGR (Homo sapiens, UniProt P09769); conditions: competition binding, % of control
Chain of FGR (P09769 whole entry): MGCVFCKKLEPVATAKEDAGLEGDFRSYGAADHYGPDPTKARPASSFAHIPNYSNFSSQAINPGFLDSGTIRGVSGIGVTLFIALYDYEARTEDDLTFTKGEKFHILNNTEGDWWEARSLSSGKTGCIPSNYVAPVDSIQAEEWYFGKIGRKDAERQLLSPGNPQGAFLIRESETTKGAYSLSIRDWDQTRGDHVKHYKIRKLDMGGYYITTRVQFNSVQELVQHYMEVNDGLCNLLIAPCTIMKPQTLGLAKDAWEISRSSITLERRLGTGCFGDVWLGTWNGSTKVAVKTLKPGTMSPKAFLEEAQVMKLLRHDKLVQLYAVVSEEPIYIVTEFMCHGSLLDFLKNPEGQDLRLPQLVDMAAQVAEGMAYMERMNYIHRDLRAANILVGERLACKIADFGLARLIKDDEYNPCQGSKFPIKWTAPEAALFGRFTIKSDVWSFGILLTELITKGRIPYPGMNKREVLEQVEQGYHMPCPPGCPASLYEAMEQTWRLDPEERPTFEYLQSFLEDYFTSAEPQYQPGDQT
Outline: as §1

[15] = biological target: RET(V804M) (Homo sapiens, UniProt P07949, V804M); conditions: competition binding, % of control; read-out: Percent Control (100 uM Levosimendan)
Outline: as §1

[16] = biological target: RET(V804L) (Homo sapiens, UniProt P07949, V804L); conditions: competition binding, % of control; read-out: Percent Control (100 uM Levosimendan)
Outline: as §1

[17] = biological target: MERTK (Homo sapiens, UniProt Q12866); conditions: competition binding, % of control; read-out: Percent Control (100 uM Levosimendan)
Outline: as §1

[18] = biological target: EPHB6 (Homo sapiens, UniProt O15197); conditions: competition binding, % of control
Outline: as §1

[19] = read-out: Percent Control (10 uM Levosimendan)
[20] = read-out: Percent Control (100 uM Levosimendan)

T1 sequence (P07947 whole entry): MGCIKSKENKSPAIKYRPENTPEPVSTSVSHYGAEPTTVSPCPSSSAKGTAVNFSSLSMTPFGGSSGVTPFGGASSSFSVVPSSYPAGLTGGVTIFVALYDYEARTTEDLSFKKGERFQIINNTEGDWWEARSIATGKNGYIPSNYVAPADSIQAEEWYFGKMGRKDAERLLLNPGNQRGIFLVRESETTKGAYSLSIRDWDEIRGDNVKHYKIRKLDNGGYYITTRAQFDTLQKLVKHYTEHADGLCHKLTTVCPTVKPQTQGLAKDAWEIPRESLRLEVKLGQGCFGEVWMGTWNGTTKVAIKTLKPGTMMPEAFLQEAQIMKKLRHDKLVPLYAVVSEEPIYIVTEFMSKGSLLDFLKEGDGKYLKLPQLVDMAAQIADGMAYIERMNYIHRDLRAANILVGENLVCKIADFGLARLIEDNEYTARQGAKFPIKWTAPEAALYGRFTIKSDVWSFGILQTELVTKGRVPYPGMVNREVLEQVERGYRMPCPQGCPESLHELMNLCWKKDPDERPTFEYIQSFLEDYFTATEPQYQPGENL

C[C@@H]1CC(=O)NN=C1c1ccc(NN=C(C#N)C#N)cc1 [levosimendan] showed a remaining binding at 10 µM [1, 19] of 97%, a remaining binding at 100 µM [1, 20] of 0% and a remaining binding at 100 µM [2] of 60%. The remaining binding at 100 µM [3] was 100%, the remaining binding at 100 µM [4] was 100% and the remaining binding at 100 µM [5] was 91%. The remaining binding at 10 µM [6, 19] was 94%, the remaining binding at 100 µM [6, 20] was 53% and the remaining binding at 10 µM [7, 19] was 55%. For the same compound, the remaining binding at 100 µM [7, 20] was 47%, the remaining binding at 100 µM [8] was 73% and the remaining binding at 10 µM [9, 19] was 87%. It also gave a remaining binding at 100 µM [9, 20] of 22%, a remaining binding at 10 µM [10, 19] of 100% and a remaining binding at 100 µM [10, 20] of 42%. It also gave a remaining binding at 100 µM [11] of 100%, a remaining binding at 100 µM [12] of 98% and a remaining binding at 10 µM [13, 19] of 100%. For the same compound, the remaining binding at 100 µM [13, 20] was 45%, the remaining binding at 10 µM [14, 19] was 100% and the remaining binding at 100 µM [14, 20] was 49%. The remaining binding at 100 µM [15] was 80%, the remaining binding at 100 µM [16] was 92% and the remaining binding at 100 µM [17] was 70%. For the same compound, the remaining binding at 10 µM [18, 19] was 56% and the remaining binding at 100 µM [18, 20] was 16%.
